Reference: patent publication US20200237703A1, “OLEACEIN FOR USE IN ATHEROSCLEROSIS PREVENTION” (WARSZAWSKI UNIWERSYTET MEDYCZNY, priority 2017, published 2020)

What was measured:
[1] = test system: macrophage cells isolated from human peripheral blood; assay: Cytotoxicity on macrophage cells; assay type: cell-based; conditions: oleacein 20 μmol/L and 50 μmol/L, 72 hours
Experimental: (§1) All experiments were conducted with the use of macrophage cells isolated from human peripheral blood. […] Expression of scavenger receptors was determined using flow cytometer. Visualization of lipid deposits in macrophages (foam cells) was carried out with the use of well-known Red Oil O staining method.

[2] = test system: macrophage foam cells; assay: Formation of foam cells / lipid deposits in macrophages, Red Oil O staining; assay type: cell-based, human; conditions: oleacein 50 μmol/L + oxLDL 50 μg/mL
Experimental: as §1
The images were acquired using fluorescence microscope Nikon TS100F. D—control, the cells without stimulation, E—the cells incubated with oleacein (50 μmol/L), F—the cells stimulated with oxLDL (50 μg/mI)—stimulated control, G—the cells incubated with oleacein (50 μmol/L) and oxLDL (50 μg/mL).

C/C=C(/C=O)[C@@H](CC=O)CC(=O)OCCc1ccc(O)c(O)c1 [oleacein]
cytotoxicity on macrophage cells [1]: no cytotoxicity
effect on the formation of foam cells and lipid deposits [2]: inhibitory effect
